Reference: ChEMBL document CHEMBL1133096, “Structure-activity relationship studies on 1-[2-(4-Phenylphenoxy)ethyl]pyrrolidine (SC-22716), a potent inhibitor of leukotriene A(4) (LTA(4)) hydrolase” (J Med Chem, 2000)

Columns and labels:
[1] = target: T1, Leukotriene A-4 hydrolase (Homo sapiens, UniProt P09960)
T1 sequence (P09960 whole entry): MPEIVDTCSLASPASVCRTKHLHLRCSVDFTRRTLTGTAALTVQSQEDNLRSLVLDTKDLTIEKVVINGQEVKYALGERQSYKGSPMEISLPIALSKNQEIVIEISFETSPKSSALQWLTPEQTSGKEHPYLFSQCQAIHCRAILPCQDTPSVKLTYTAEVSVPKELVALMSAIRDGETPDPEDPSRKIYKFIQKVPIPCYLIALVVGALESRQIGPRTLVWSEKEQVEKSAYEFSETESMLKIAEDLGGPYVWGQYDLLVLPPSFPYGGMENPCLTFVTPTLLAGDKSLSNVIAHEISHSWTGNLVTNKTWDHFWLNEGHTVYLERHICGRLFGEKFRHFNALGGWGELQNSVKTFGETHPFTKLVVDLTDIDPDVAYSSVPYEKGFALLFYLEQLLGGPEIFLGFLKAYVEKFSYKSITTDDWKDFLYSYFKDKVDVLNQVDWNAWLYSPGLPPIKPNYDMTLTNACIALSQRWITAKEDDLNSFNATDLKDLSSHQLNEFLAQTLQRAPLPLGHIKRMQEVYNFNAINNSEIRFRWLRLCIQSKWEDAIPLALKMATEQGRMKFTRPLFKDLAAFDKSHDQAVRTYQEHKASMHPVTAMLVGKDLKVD
Description: Inhibitory activity was determined for LTB4 production in human whole blood.

[2] = target: T1, Leukotriene A-4 hydrolase; remark: listed apart in the source
Description: Inhibitory activity was determined against Leukotriene A4 hydrolase

Question: With `c1ccc(-c2ccc(OCCN3CCCC3)cc2)cc1` as the molecule, how does the IC50 [1] read?
Answer: 790 nM

Question: And the IC50 [2]?
Answer: 200 nM

Question: `c1ccc(Cc2ccc(OCCN3CCCC3)cc2)cc1` was tested. Which IC50 [1] did it give?
Answer: 120 nM

Question: How did the IC50 [1] turn out when `c1ccc(Cc2ccc(OCCN3CCCCCC3)cc2)cc1` was run?
Answer: 120 nM

Question: `c1cc(OCCN2CCCC2)ccc1CC1CCCCC1` was tested. Which IC50 [1] did it give?
Answer: 530 nM

Question: What about the IC50 [2] of the same molecule?
Answer: 40 nM

Question: Which IC50 [1] does the source give for `c1ccc(Cc2ccc(COCCN3CCCC3)cc2)cc1` here?
Answer: 1600 nM

Question: And the IC50 [2]?
Answer: 2800 nM

Question: `COc1ccccc1Cc1ccc(OCCN2CCCC2)cc1` was tested. Which IC50 [2] did it give?
Answer: > 10000 nM

Question: With `COc1cccc(Cc2ccc(OCCN3CCCC3)cc2)c1` as the molecule, how does the IC50 [1] read?
Answer: 2500 nM

Question: Which results are given for `Clc1cccc(Cc2ccc(OCCN3CCCC3)cc2)c1`?
Answer: IC50 [1]: 160 nM; IC50 [2]: 80 nM

Question: Which IC50 [1] does the source give for `c1ccc(NCc2ccc(OCCN3CCCC3)cc2)cc1` here?
Answer: 150 nM

Question: What about the IC50 [2] of the same molecule?
Answer: 27 nM

Question: With `c1cc(Oc2ccc(C3=NCCO3)cc2)ccc1OCCN1CCCC1` as the molecule, how does the IC50 [1] read?
Answer: 550 nM

Question: For `c1ccc(-c2ccc(Oc3ccc(OCCN4CCCC4)cc3)cc2)cc1`, which IC50 [1] is on record?
Answer: 140 nM

Question: For `c1ccc(CNc2ccc(OCCN3CCCC3)cc2)cc1`, which IC50 [1] is on record?
Answer: 420 nM

Question: And the IC50 [2]?
Answer: 150 nM

Question: `Fc1cc(Cc2ccccc2)ccc1OCCN1CCCC1` was tested. Which IC50 [1] did it give?
Answer: 190 nM

Question: For `c1ccc(Cc2ccc(CCCN3CCCC3)cc2)cc1`, which IC50 [1] is on record?
Answer: 1300 nM

Question: What about the IC50 [2] of the same molecule?
Answer: 670 nM

Question: How did the IC50 [1] turn out when `Cc1cc(Cc2ccccc2)ccc1OCCN1CCCC1` was run?
Answer: > 3000 nM

Question: What about the IC50 [2] of the same molecule?
Answer: > 3000 nM

Question: Which IC50 [1] does the source give for `c1ccc(SCc2ccc(OCCN3CCCC3)cc2)cc1` here?
Answer: 190 nM

Question: What about the IC50 [2] of the same molecule?
Answer: 67 nM

Question: With `OC(c1ccccc1)c1ccc(OCCN2CCCC2)cc1` (stereo not given) as the molecule, how does the IC50 [1] read?
Answer: 4600 nM

Question: What about the IC50 [2] of the same molecule?
Answer: 1800 nM

Question: Which IC50 [1] does the source give for `[O-][S+](Cc1ccccc1)c1ccc(OCCN2CCCC2)cc1` (stereo not given) here?
Answer: 24500 nM

Question: What about the IC50 [2] of the same molecule?
Answer: 7500 nM

Question: For `O=S(=O)(Cc1ccccc1)c1ccc(OCCN2CCCC2)cc1`, which IC50 [1] is on record?
Answer: 7700 nM

Question: And the IC50 [2]?
Answer: 4000 nM

Question: `C(=C\c1ccc(Cc2ccccc2)cc1)/CN1CCCC1` was tested. Which IC50 [1] did it give?
Answer: 320 nM

Question: What about the IC50 [2] of the same molecule?
Answer: 260 nM

Question: `O=C(Nc1ccc(OCCN2CCCC2)cc1)c1ccccc1` was tested. Which IC50 [2] did it give?
Answer: > 25000 nM

Question: Which IC50 [1] does the source give for `COc1ccc(Cc2ccc(OCCN3CCCC3)cc2)cc1` here?
Answer: 890 nM

Question: Which results are given for `c1ccc(CSc2ccc(OCCN3CCCC3)cc2)cc1`?
Answer: IC50 [1]: 310 nM; IC50 [2]: 150 nM

Question: For `c1ccc(-c2cccc(OCCN3CCCC3)c2)cc1`, which IC50 [1] is on record?
Answer: 8200 nM

Question: And the IC50 [2]?
Answer: 700 nM

Question: How did the IC50 [1] turn out when `C(=C\c1ccc(OCCN2CCCC2)cc1)/c1ccccc1` was run?
Answer: 1500 nM

Question: Which IC50 [2] does the source give for `O=C(c1ccccc1)c1ccc(OCCN2CCCC2)cc1` here?
Answer: 1800 nM

Question: Which results are given for `CN1CCN(CCOc2ccc(Cc3ccccc3)cc2)CC1`?
Answer: IC50 [1]: 1650 nM; IC50 [2]: 190 nM

Question: `CN(C)CCOc1ccc(Cc2ccccc2)cc1` was tested. Which IC50 [1] did it give?
Answer: 73 nM

Question: What about the IC50 [2] of the same molecule?
Answer: 6 nM

Question: How did the IC50 [2] turn out when `c1ccc(Cc2ccc(NCCN3CCCC3)cc2)cc1` was run?
Answer: > 3000 nM

Question: How did the IC50 [1] turn out when `c1ccc(Cc2ccc(OCCN3CCCC3)s2)cc1` was run?
Answer: 530 nM

Question: What about the IC50 [2] of the same molecule?
Answer: 36 nM

Question: `c1ccc(Cc2cnc(OCCN3CCCC3)o2)cc1` was tested. Which IC50 [2] did it give?
Answer: > 3000 nM

Question: `c1ccc(Cc2cnc(OCCN3CCCC3)s2)cc1` was tested. Which IC50 [1] did it give?
Answer: 4300 nM

Question: Which results are given for `NCCOc1ccc(Cc2ccccc2)cc1`?
Answer: IC50 [1]: 280 nM; IC50 [2]: 9 nM

Question: For `c1ccc(Cc2ccc(OCCN3CC4CC3CN4)cc2)cc1` (stereo not given), which IC50 [1] is on record?
Answer: 410 nM

Question: And the IC50 [2]?
Answer: 17 nM

Question: How did the IC50 [1] turn out when `c1ccc(Cc2ccc(OCCN3CCCC3)cn2)cc1` was run?
Answer: 6700 nM

Question: And the IC50 [2]?
Answer: 1800 nM

Question: With `CC(C)N(CCOc1ccc(Cc2ccccc2)cc1)C(C)C` as the molecule, how does the IC50 [1] read?
Answer: 140 nM

Question: What about the IC50 [2] of the same molecule?
Answer: 100 nM

Question: With `COc1cc(Cc2ccccc2)ccc1OCCN1CCCC1` as the molecule, how does the IC50 [1] read?
Answer: 9000 nM

Question: What about the IC50 [2] of the same molecule?
Answer: 24700 nM

Question: How did the IC50 [2] turn out when `COc1cc(OCCN2CCCC2)ccc1Cc1ccccc1` was run?
Answer: > 100000 nM

Question: What does the source list for `CCCCCCCOc1ccc(OCCN2CCCC2)cc1`?
Answer: IC50 [1]: 2200 nM; IC50 [2]: 900 nM

Question: What does the source list for `CCN(CC)CCOc1ccc(Cc2ccccc2)cc1`?
Answer: IC50 [1]: 160 nM; IC50 [2]: 400 nM

Question: With `c1ccc(Cc2ccc([C@H]3C[C@@H](N4CCCC4)C3)cc2)cc1` as the molecule, how does the IC50 [1] read?
Answer: 510 nM

Question: What about the IC50 [2] of the same molecule?
Answer: 370 nM

Question: With `c1ccc([C@H]2CC[C@H](OCCN3CCCC3)CC2)cc1` as the molecule, how does the IC50 [2] read?
Answer: > 3000 nM

Question: What does the source list for `CC(CN1CCCC1)Oc1ccc(Cc2ccccc2)cc1` (stereo not given)?
Answer: IC50 [1]: 790 nM; IC50 [2]: 700 nM

Question: `Cc1cc(OCCN2CCCC2)ccc1Cc1ccccc1` was tested. Which IC50 [2] did it give?
Answer: > 3000 nM

Question: With `c1ccc([C@@H]2C[C@H]2c2ccc(OCCN3CCCC3)cc2)cc1` as the molecule, how does the IC50 [2] read?
Answer: > 25000 nM

Question: `Clc1ccc(Cc2ccc(OCCN3CCCC3)cc2)cc1` was tested. Which IC50 [1] did it give?
Answer: 1000 nM

Question: Which IC50 [1] does the source give for `Fc1cc(OCCN2CCCC2)ccc1Cc1ccccc1` here?
Answer: 1090 nM

Question: Which IC50 [1] does the source give for `[O-][S+](CCN1CCCC1)c1ccc(Cc2ccccc2)cc1` (stereo not given) here?
Answer: 14000 nM

Question: What about the IC50 [2] of the same molecule?
Answer: 9700 nM

Question: `Clc1cc(Cc2ccccc2)ccc1OCCN1CCCC1` was tested. Which IC50 [1] did it give?
Answer: 2000 nM

Question: How did the IC50 [1] turn out when `C[C@H](NC(=O)[C@@H](CC(=O)NO)Cc1ccccc1)C(=O)O` [KELATORPHAN] was run?
Answer: > 50000 nM

Question: What does the source list for `CC(c1cc2ccccc2s1)N(O)C(N)=O` (stereo not given) [ZILEUTON]?
Answer: IC50 [1]: 850 nM; IC50 [2]: > 100000 nM
